SMILES | melting point [°C]
Cc1cc2cc(C3=CCN(C(=O)CN4[C@H](C)CN(c5ccc(C(F)(F)F)nc5)C[C@@H]4C)CC3)ccc2s1 [Compound 39, 2-[(2S,6R)-2,6-dimethyl-4-(6-trifluoromethylpyridin-3-yl)piperazin-1-yl]-1-[4-(2-methylbenzo[b]thiophen-5-yl)-3,6-dihydro-2H-pyridin-1-yl]ethanone] | 217 to 218
Cc1cc2cc(C3=CCN(C(=O)CN4[C@H](C)CN(c5cncnc5)C[C@@H]4C)CC3)ccc2s1 [Compound 40, 2-((2S,6R)-2,6-dimethyl-4-pyrimidin-5-ylpiperazin-1-yl)-1-[4-(2-methylbenzo[b]thiophen-5-yl)-3,6-dihydro-2H-pyridin-1-yl]ethanone] | 191 to 192
C[C@@H]1CN(c2cncnc2)C[C@H](C)N1CC(=O)N1CC=C(c2ccc3sccc3c2)CC1 [Compound 41, 1-(4-benzo[b]thiophen-5-yl-3,6-dihydro-2H-pyridin-1-yl)-2-((2S,6R)-2,6-dimethyl-4-pyrimidin-5-ylpiperazin-1-yl)ethanone] | 218 to 220
O=C(CN1CCN(c2ccc(C(F)(F)F)cn2)C(=O)C1)N1CC=C(c2ccc3sccc3c2)CC1 [Compound 43, 4-[2-(4-benzo[b]thiophen-5-yl-3,6-dihydro-2H-pyridin-1-yl)-2-oxoethyl]-1-(5-trifluoromethylpyridin-2-yl)piperazin-2-one] | 169 to 170
C[C@@H]1CN(c2ccc(C(F)(F)F)nc2)C[C@H](C)N1CC(=O)N1CC=C(c2ccc3c(c2)OCCO3)CC1 [Compound 45, 1-[4-(2,3-dihydrobenzo[1,4]dioxin-6-yl)-3,6-dihydro-2H-pyridin-1-yl]-2-[(2S,6R)-2,6-dimethyl-4-(6-trifluoromethylpyridin-3-yl)piperazin-1-yl]ethanone] | 200 to 201
O=C(CN1CCN(c2ccc(C(F)(F)F)cn2)CC1)N1CC=C(c2ccc3sccc3c2)CC1 [Compound 46, 1-(4-benzo[b]thiophen-5-yl-3,6-dihydro-2H-pyridin-1-yl)-2-[4-(5-trifluoromethylpyridin-2-yl)piperazin-1-yl)ethanone] | 170 to 171
C[C@@H]1CN(c2ccc(C(F)(F)F)nc2)C[C@H](C)N1CC(=O)N1CC=C(c2ccc3sccc3c2)CC1 [Compound 47, 1-(4-benzo[b]thiophen-5-yl-3,6-dihydro-2H-pyridin-1-yl)-2-[(2S,6R)-2,6-dimethyl-4-(6-trifluoromethylpyridin-3-yl)piperazin-1-yl)ethanone] | 136 to 137
O=C(CN1CCN(c2ccc(C(F)(F)F)cn2)C(=O)C1)N1CC=C(c2ccc3c(c2)OCCO3)CC1 [Compound 49, 4-{2-[4-(2,3-dihydrobenzo[1,4]dioxin-6-yl)-3,6-dihydro-2H-pyridin-1-yl]-2-oxoethyl}-1-(5-trifluoromethylpyridin-2-yl)piperazin-2-one] | 161 to 162
O=C(CN1CCN(c2ccc(C(F)(F)F)cn2)CC1)N1CC=C(c2cccc3ccsc23)CC1 [Compound 50, 1-(4-benzo[b]thiophen-7-yl-3,6-dihydro-2H-pyridin-1-yl)-2-[4-(5-trifluoromethylpyridin-2-yl)piperazin-1-yl]ethanone] | 120 to 121
COC(=O)c1ccc(N2C[C@@H](C)N(CC(=O)N3CC=C(c4ccc5sccc5c4)CC3)[C@@H](C)C2)nc1 [Compound 52, Methyl 6-{(3S,5R)-4-[2-(4-benzo[b]thiophen-5-yl-3,6-dihydro-2H-pyridin-1-yl)-2-oxoethyl]-3,5-dimethylpiperazin-1-yl}nicotinate] | 130 to 132
C[C@@H]1CN(c2cncnc2)C[C@H](C)N1CC(=O)N1CC=C(c2cccc3ccsc23)CC1 [Compound 55, 1-(4-benzo[b]thiophen-7-yl-3,6-dihydro-2H-pyridin-1-yl)-2-((2S,6R)-2,6-dimethyl-4-pyrimidin-5-ylpiperazin-1-yl)ethanone] | 195 to 196
C[C@@H]1CN(c2ccc(C(=O)O)cn2)C[C@H](C)N1CC(=O)N1CC=C(c2cccc3ccoc23)CC1 [Compound 57, 6-{(3S,5R)-4-[2-(4-benzofuran-7-yl-3,6-dihydro-2H-pyridin-1-yl)-2-oxoethyl]-3,5-dimethylpiperazin-1-yl}nicotinic acid] | 272 to 274
O=C(CN1CCN(c2ccc(C(F)(F)F)cn2)C(=O)C1)N1CC=C(c2ccc3occc3c2)CC1 [Compound 60, 4-[2-(4-benzofuran-5-yl-3,6-dihydro-2H-pyridin-1-yl)-2-oxoethyl]-1-(5-trifluoromethylpyridin-2-yl)piperazin-2-one] | 154 to 155
COC(=O)c1ccc(N2C[C@@H](C)N(CC(=O)N3CC=C(c4ccc5sc(C)cc5c4)CC3)[C@@H](C)C2)nc1 [Compound 61, Methyl 6-((3S,5R)-3,5-dimethyl-4-{2-[4-(2-methylbenzo[b]thiophen-5-yl)-3,6-dihydro-2H-pyridin-1-yl]-2-oxoethyl}piperazin-1-yl)nicotinate] | 148 to 150
C[C@@H]1CN(c2ccc(C(F)(F)F)cn2)C[C@H](C)N1CC(=O)N1CCC=C(c2cccc3ccoc23)C1 [Compound 63, 1-(5-benzofuran-7-yl-3,6-dihydro-2H-pyridin-1-yl)-2-[(2S,6R)-2,6-dimethyl-4-(5-trifluoromethylpyridin-2-yl)piperazin-1-yl]ethanone] | 129 to 130
CCCc1cc2cc(C3=CCN(C(=O)CN4[C@H](C)CN(c5ccc(C(F)(F)F)cn5)C[C@@H]4C)CC3)ccc2s1 [Compound 68, 2-[(2S,6R)-2,6-dimethyl-4-(5-trifluoromethylpyridin-2-yl)piperazin-1-yl]-1-[4-(2-propylbenzo[b]thiophen-5-yl)-3,6-dihydro-2H-pyridin-1-yl]ethanone] | 157 to 159
O=C(CN1CCN(c2ccc(C(F)(F)F)cn2)C(=O)C1)N1CC=C(c2cccc3ccoc23)C1 [Compound 83, 4-[2-(3-benzofuran-7-yl-2,5-dihydropyrrol-1-yl)-2-oxoethyl]-1-(5-trifluoromethylpyridin-2-yl)piperazin-2-one] | 184 to 186
C[C@@H]1CN(c2ncc(C(F)(F)F)cc2Cl)C[C@H](C)N1CC(=O)N1CC=C(c2cccc3ccoc23)CC1 [Compound 92, 1-(4-benzofuran-7-yl-3,6-dihydro-2H-pyridin-1-yl)-2-[(2S,6R)-4-(3-chloro-5-trifluoromethylpyridin-2-yl)-2,6-dimethylpiperazin-1-yl]ethanone] | 130 to 131
C[C@@H]1CN(c2ccc(C(F)(F)F)cn2)C[C@H](C)N1CC(=O)N1CC=C(c2c[nH]c3ccccc23)CC1 [Compound 97, 2-[(2S,6R)-2,6-dimethyl-4-(5-trifluoromethylpyridin-2-yl)piperazin-1-yl]-1-[4-(1H-indol-3-yl)-3,6-dihydro-2H-pyridin-1-yl]ethanone] | 198 to 200
O=C(CN1CCN(c2ccc3ccccc3n2)CC1)N1CC=C(c2c[nH]c3ccccc23)CC1 [Compound 98, 1-[4-(1H-indol-3-yl)-3,6-dihydro-2H-pyridin-1-yl]-2-(4-quinolin-2-ylpiperazin-1-yl)ethanone] | 213 to 215
C[C@@H]1CN(c2ncc(F)cn2)C[C@H](C)N1CC(=O)N1CC=C(c2c[nH]c3ccccc23)CC1 [Compound 100, 2-[(2S,6R)-4-(5-fluoropyrimidin-2-yl)-2,6-dimethylpiperazin-1-yl]-1-[4-(1H-indol-3-yl)-3,6-dihydro-2H-pyridin-1-yl]ethanone] | 235 to 237
C[C@@H]1CN(c2ccc(Cl)cn2)C[C@H](C)N1CC(=O)N1CC=C(c2cccc3ccsc23)CC1 [Compound 101, 1-(4-benzo[b]thiophen-7-yl-3,6-dihydro-2H-pyridin-1-yl)-2-[(2S,6R)-4-(5-chloropyridin-2-yl)-2,6-dimethylpiperazin-1-yl]ethanone] | 157 to 158
O=C(CN1CCN(c2ccc3ccccc3n2)CC1)N1CC=C(c2cccc3ccsc23)CC1 [Compound 105, 1-(4-benzo[b]thiophen-7-yl-3,6-dihydro-2H-pyridin-1-yl)-2-(4-quinolin-2-ylpiperazin-1-yl)ethanone] | 177 to 178
O=C(CN1CCN(c2ccnc3cc(Cl)ccc23)CC1)N1CC=C(c2cccc3ccsc23)CC1 [Compound 106, 1-(4-benzo[b]thiophen-7-yl-3,6-dihydro-2H-pyridin-1-yl)-2-[4-(7-chloroquinolin-4-yl)piperazin-1-yl]ethanone] | 90 to 91
O=C(CN1CCN(c2cccc(Cl)n2)CC1)N1CC=C(c2cccc3ccsc23)CC1 [Compound 107, 1-(4-benzo[b]thiophen-7-yl-3,6-dihydro-2H-pyridin-1-yl)-2-[4-(6-chloropyridin-2-yl)piperazin-1-yl]ethanone] | 92 to 93
O=C(CN1CCN(c2cccc(Cl)n2)CC1)N1CC=C(c2c[nH]c3ccccc23)CC1 [Compound 108, 2-[4-(6-chloropyridin-2-yl)piperazin-1-yl]-1-[4-(1H-indol-3-yl)-3,6-dihydro-2H-pyridin-1-yl]ethanone] | 202 to 204
O=C(CN1CCN(c2ccc(C(F)(F)F)cn2)CC1)N1CC=C(c2c[nH]c3ccccc23)CC1 [Compound 109, 1-[4-(1H-indol-3-yl)-3,6-dihydro-2H-pyridin-1-yl]-2-[4-(5-trifluoromethylpyridin-2-yl)piperazin-1-yl]ethanone] | 220 to 222
C[C@@H]1CN(c2ccc3ccccc3n2)C[C@H](C)N1CC(=O)N1CC=C(c2c[nH]c3ccccc23)CC1 [Compound 110, 2-((2S,6R)-2,6-dimethyl-4-quinolin-2-yl-piperazin-1-yl)-1-[4-(1H-indol-3-yl)-3,6-dihydro-2H-pyridin-1-yl]ethanone] | 198 to 200
O=C(CN1CCN(c2ccc(Cl)c(Cl)n2)CC1)N1CC=C(c2cccc3ccsc23)CC1 [Compound 112, 1-(4-benzo[b]thiophen-7-yl-3,6-dihydro-2H-pyridin-1-yl)-2-[4-(5,6-dichloropyridin-2-yl)piperazin-1-yl]ethanone] | 89 to 90
O=C(CN1CCN(c2cccc(Br)n2)CC1)N1CC=C(c2cccc3ccsc23)CC1 [Compound 113, 1-(4-benzo[b]thiophen-7-yl-3,6-dihydro-2H-pyridin-1-yl)-2-[4-(6-bromopyridin-2-yl)piperazin-1-yl]ethanone] | 80 to 81

— patent US8518947B2, “(Heterocycle/tetrahydropyridine)-(piperazinyl)-1-alcanone and (heterocycle/dihydropyrrolidine)-(piperazinyl)-1-alcanone derivatives, and use thereof as p75 inhibitors” (Sanofi, priority 2009, dated 2013)
